The structures appear in SMILES notation.

This assay relates to MCF7 cells. The experiment in a line: MCF7 cell activity test (CCK8 proliferation inhibition). Format: cell-based. Particulars: Homo sapiens, MCF7, 144 h, 6 days incubation. How it is done:
Experimental Example 1: MCF7 cell activity test
Cell culture: MCF7 cells (culture conditions: MEM medium+20% FBS+1% essential amino acids++1 mg/100 ml insulin, 37° C., 5% CO2). Plating: The cells subcultured into the logarithmic growth phase were collected and transferred into a centrifuge tube, and centrifuged at 800 rpm for 5 min. The cells were resuspended in complete medium and counted. The cells were diluted and adjusted to a final concentration of 30,000 cells/mL. The cells were then seeded into a 96-well plate with 100 μL per well and incubated in an incubator overnight. Administration: Each group of drug solutions was added into the 96-well plate, 100 μL per well, n=3 for each drug concentration. Meanwhile, negative wells (n=6) and blank wells (n=3) were set up. The 96-well plate was incubated in the incubator for further 6 days. CCK8 reagent was added to the 96-well plate, 20 μL per well, and then the plate was placed in the incubator for further 4 h. The absorbance of the solution was measured at a wavelength of 450 nm using an enzyme reader. The proliferation inhibition rate was calculated and the half inhibitory concentration IC50 value was calculated using Graphpad Prism 6.0 software.
For `O=C1CCC(NC(=O)c2ccc(N3CCN(C[C@@H]4CCCC[C@H]4CN4CCN(c5ccc([C@@H]6c7ccc(O)cc7CC[C@@H]6c6ccccc6)cc5)CC4)CC3)cn2)C(=O)N1` (stereo partly drawn) [III-1, N-(2,6-dioxopiperidin-3-yl)-5-(4-(((1R,2R)-2-((4-(4-((1R,2S)-6-hydroxy-2-phenyl-1,2,3,4-tetrahydronaphthalen-1-yl)phenyl)piperazin-1-yl)methyl)cyclohexyl)methyl)piperazin-1-yl)pyridinecarboxamide], the IC50 was under 25 nM.

The compound `O=C1CCC(NC(=O)c2ccc(C3CCN(C[C@@H]4CCCC[C@H]4CN4CCN(c5ccc([C@@H]6c7ccc(O)cc7CC[C@@H]6c6ccccc6)cc5)CC4)CC3)cc2F)C(=O)N1` (stereo partly drawn) [Compound I-67, N-(2,6-dioxopiperidin-3-yl)-2-fluoro-4-(1-(((1R,2R)-2-((4-(4-((1R,2S)-6-hydroxy-2-phenyl-1,2,3,4-tetrahydronaphthalen-1-yl)phenyl)piperazin-1-yl)methyl)cyclohexyl)methyl)piperidin-4-yl)benzamide] yielded an IC50 of under 100 nM. The value for `O=C1CCC(n2cnc3cc(C4CCN(C[C@@H]5CCCC[C@H]5CN5CCN(c6ccc([C@@H]7c8ccc(O)cc8CC[C@@H]7c7ccccc7)cc6)CC5)CC4)c(F)cc32)C(=O)N1` (some centres unmarked) [Compound V-5] was under 100 nM; that for `Cn1c(=O)n(C2CCC(=O)NC2=O)c2ccc(N3CCN(C[C@@H]4CCCC[C@H]4CN4CCN(c5ccc([C@@H]6c7ccc(O)cc7CC[C@@H]6c6ccccc6)cc5)CC4)CC3)cc21` (some centres unmarked) [VII-2] was under 100 nM; that for `COC1(c2cc3c(cc2F)c(N2CCC(=O)NC2=O)nn3C)CCN(C[C@@H]2CCCC[C@H]2CN2CCN(c3ccc([C@@H]4c5ccc(O)cc5CC[C@@H]4c4ccccc4)cc3)CC2)CC1` [VI-28] was under 25 nM. As for `C[C@@H]1CC(c2cc3c(cc2F)c(N2CCC(=O)NC2=O)nn3C)C[C@H](C)N1C[C@@H]1CCCC[C@H]1CN1CCN(c2ccc([C@@H]3c4ccc(O)cc4CC[C@@H]3c3ccccc3)cc2)CC1` (some centres unmarked) [VI-22], the IC50 is under 50 nM.

In turn, `Cc1nn(C2CCC(=O)NC2=O)c2ccc(C3CCN(C[C@@H]4CCCC[C@H]4CN4CCN(c5ccc([C@@H]6c7ccc(O)cc7CC[C@@H]6c6ccccc6)cc5)CC4)CC3)cc12` (some centres unmarked) [VI-8] yielded an IC50 of under 50 nM.

In turn, `Cn1nc(N2CCC(=O)NC2=O)c2cc(F)c(C3CCN(C[C@@H]4CCCC[C@H]4CN4CCN(c5ccc([C@@H]6c7ccc(O)cc7CC[C@@H]6c6ccccc6)cc5)CC4)C4(CC4)C3)cc21` (some centres unmarked) [VI-18] returned an IC50 of under 25 nM. The value for `C[C@@H]1CC(O)(c2cc3c(cc2F)c(N2CCC(=O)NC2=O)nn3C)CCN1C[C@@H]1CCCC[C@H]1CN1CCN(c2ccc([C@@H]3c4ccc(O)cc4CC[C@@H]3c3ccccc3)cc2)CC1` (stereo partly drawn) [VI-29, 1-(5-fluoro-6-((2R)-4-hydroxy-1-(((1R, 2R)-2-((4-(4-((1R, 2S)-6-hydroxy-2-phenyl-1,2,3,4-tetrahydronaphthalen-1-yl)phenyl)piperazin-1-yl)methyl)cyclohexyl)methyl)-2-methylpiperidin-4-yl)-1-methyl-1H-indazol-3-yl)dihydropyrimidine-2,4 (1H,3H)-dione] was under 25 nM; that for `Cn1c(=O)n(C2CCC(=O)NC2=O)c2cccc(C3CCN(C[C@@H]4CCCC[C@H]4CN4CCN(c5ccc([C@@H]6c7ccc(O)cc7CC[C@@H]6c6ccccc6)cc5)CC4)CC3)c21` (some centres unmarked) [VII-3] was under 100 nM; that for `Cn1nc(N2CCC(=O)NC2=O)c2cc(F)c(C3CCN(C[C@H]4CCCC[C@@H]4CN4CCN(c5ccc([C@@H]6c7ccc(O)cc7CC[C@@H]6c6ccccc6)cc5)CC4)CC3(F)F)cc21` (stereo in doubt) [IV-12] was under 100 nM. As to `C[C@H]1CC(c2cc3c(cc2F)c(N2CCC(=O)NC2=O)nn3C)CCN1C[C@@H]1CCCC[C@H]1CN1CCN(c2ccc([C@@H]3c4ccc(O)cc4CC[C@@H]3c3ccccc3)cc2)CC1` (some centres unmarked) [VI-21], the IC50 is under 50 nM. As for `C[C@H]1CC(O)(c2cc3c(cc2F)c(N2CCC(=O)NC2=O)nn3C)CCN1C[C@@H]1CCCC[C@H]1CN1CCN(c2ccc([C@@H]3c4ccc(O)cc4CC[C@@H]3c3ccccc3)cc2)CC1` (stereo partly drawn) [VI-30, 1-(5-fluoro-6-((2S)-4-hydroxy-1-(((1R,2R)-2-((4-(4-((1R,2S)-6-hydroxy-2-phenyl-1,2,3,4-tetrahydronaphthalen-1-yl)phenyl)piperazin-1-yl)methyl)cyclohexyl)methyl)-2-methylpiperidin-4-yl)-1-methyl-1H-indazol-3-yl)dihydropyrimidine-2,4 (1H,3H)-dione], the IC50 is under 50 nM. On to `O=C1CCC(NC(=O)c2ccc(C3CCN(C[C@@H]4CCCC[C@H]4CN4CCN(c5ccc([C@@H]6c7ccc(O)cc7CC[C@@H]6c6ccccc6)cc5)CC4)CC3)cn2)C(=O)N1` (stereo partly drawn) [III-3, N-(2,6-dioxopiperidin-3-yl)-5-(1-(((1R,2R)-2-((4-(4-((1R,2S)-6-hydroxy-2-phenyl-1,2,3,4-tetrahydronaphthalen-1-yl)phenyl)piperazin-1-yl)methyl)cyclohexyl)methyl)piperidin-4-yl)pyridinecarboxamide], for which the IC50 is under 100 nM. For `Cn1nc(C2CCC(=O)NC2=O)c2ccc(N3CCN(C[C@@H]4CCCC[C@H]4CN4CCN(c5ccc([C@@H]6c7ccc(O)cc7CC[C@@H]6c6ccccc6)cc5)CC4)CC3)cc21` (stereo partly drawn) [IV-3, 3-(6-(4-(((1R,2R)-2-((4-(4-((1R,2S)-6-hydroxy-2-phenyl-1,2,3,4-tetrahydronaphthalen-1-yl)phenyl)piperazin-1-yl)methyl)cyclohexyl)methyl)piperazin-1-yl)-1-methyl-1H-indazol-3-yl)piperidine-2,6-dione], the IC50 was under 25 nM.

`Cn1nc(N2CCC(=O)NC2=O)c2cc(F)c(C3CCN(C4CCN(C[C@@H]5CCCC[C@H]5CN5CCN(c6ccc([C@@H]7c8ccc(O)cc8CC[C@@H]7c7ccccc7)cc6)CC5)CC4)CC3)cc21` [VI-19] showed an IC50 of under 50 nM. The value for `Cn1nc(N2CCC(=O)NC2=O)c2cc(F)c(N3CCN(C[C@@H]4CCCC[C@H]4CN4CCN(c5ccc([C@@H]6c7ccc(O)cc7CC[C@@H]6c6ccccc6)cc5)CC4)CC3)cc21` [IV-5] was under 25 nM; that for `Cn1nc(N2CCC(=O)NC2=O)c2cc(F)c(N3CC4(CN(C[C@@H]5CCCC[C@H]5CN5CCN(c6ccc([C@@H]7c8ccc(O)cc8CC[C@@H]7c7ccccc7)cc6)CC5)C4)C3)cc21` [VI-26] was under 50 nM; that for `Cc1nn(C2CCC(=O)NC2=O)c2cc(F)c(C3CCN(C[C@@H]4CCCC[C@H]4CN4CCN(c5ccc([C@@H]6c7ccc(O)cc7CC[C@@H]6c6ccccc6)cc5)CC4)CC3)cc12` (some centres unmarked) [VI-9] was under 100 nM. In the case of `O=C1CCC(n2cnc3cc(C4CCN(C[C@@H]5CCCC[C@H]5CN5CCN(c6ccc([C@@H]7c8ccc(O)cc8CC[C@@H]7c7ccccc7)cc6)CC5)CC4)ccc32)C(=O)N1` (some centres unmarked) [Compound V-7] it was under 100 nM; in that of `Cn1nc(C2CCC(=O)NC2=O)c2cc(F)c(N3CCN(C[C@@H]4CCCC[C@H]4CN4CCN(c5ccc([C@@H]6c7ccc(O)cc7CC[C@@H]6c6ccccc6)cc5)CC4)CC3)cc21` (some centres unmarked) [IV-1], under 50 nM; in that of `O=C1CCC(n2cnc3cc(N4CCN(C[C@@H]5CCCC[C@H]5CN5CCN(c6ccc([C@@H]7c8ccc(O)cc8CC[C@@H]7c7ccccc7)cc6)CC5)CC4)c(F)cc32)C(=O)N1` (some centres unmarked) [Compound V-2], under 50 nM. On to `O=C1CCC(NC(=O)c2ccc(N3CCN(C[C@H]4CCCC[C@@H]4CN4CCN(c5ccc([C@@H]6c7ccc(O)cc7CC[C@@H]6c6ccccc6)cc5)CC4)CC3)cn2)C(=O)N1` (stereo partly drawn) [III-2, N-(2,6-dioxopiperidin-3-yl)-5-(4-(((1S,2S)-2-((4-(4-((1R,2S)-6-hydroxy-2-phenyl-1,2,3,4-tetrahydronaphthalen-1-yl)phenyl)piperazin-1-yl)methyl)cyclohexyl)methyl)piperazin-1-yl)pyridinecarboxamide], for which the IC50 was under 100 nM. In the case of `Cn1nc(N2CCC(=O)NC2=O)c2cc(F)c(C3CCC(N(C[C@@H]4CCCC[C@H]4CN4CCN(c5ccc([C@@H]6c7ccc(O)cc7CC[C@@H]6c6ccccc6)cc5)CC4)C4CC4)CC3)cc21` (some centres unmarked) [VI-25] it was under 100 nM; in that of `Cn1nc(N2CCC(=O)NC2=O)c2cc(F)c(C3CCC(N4CCN(C[C@@H]5CCCC[C@H]5CN5CCN(c6ccc([C@@H]7c8ccc(O)cc8CC[C@@H]7c7ccccc7)cc6)CC5)CC4)CC3)cc21` (some centres unmarked) [VI-24], under 25 nM.

With `C[C@@H]1CC(c2cc3c(cc2F)c(N2CCC(=O)NC2=O)nn3C)CCN1C[C@@H]1CCCC[C@H]1CN1CCN(c2ccc([C@@H]3c4ccc(O)cc4CC[C@@H]3c3ccccc3)cc2)CC1` (some centres unmarked) [VI-20], the IC50 is under 25 nM. The value for `Cn1nc(C2CCC(=O)NC2=O)c2ccc(N3CCN(C[C@H]4CCCC[C@@H]4CN4CCN(c5ccc([C@@H]6c7ccc(O)cc7CC[C@@H]6c6ccccc6)cc5)CC4)CC3)cc21` (stereo partly drawn) [IV-4, 3-(6-(4-(((1S,2S)-2-((4-(4-((1R,2S)-6-hydroxy-2-phenyl-1,2,3,4-tetrahydronaphthalen-1-yl)phenyl)piperazin-1-yl)methyl)cyclohexyl)methyl)piperazin-1-yl)-1-methyl-1H-indazol-3-yl)piperidine-2,6-dione] was under 100 nM; that for `O=C1CCC(n2cnc3cc(N4CCN(C[C@@H]5CCCC[C@H]5CN5CCN(c6ccc([C@@H]7c8ccc(O)cc8CC[C@@H]7c7ccccc7)cc6)CC5)CC4)ccc32)C(=O)N1` (some centres unmarked) [Compound V-3] was under 50 nM. In the case of `O=C1CCC(n2ncc3cc(N4CCN(C[C@@H]5CCCC[C@H]5CN5CCN(c6ccc([C@@H]7c8ccc(O)cc8CC[C@@H]7c7ccccc7)cc6)CC5)CC4)c(F)cc32)C(=O)N1` (some centres unmarked) [VI-5] it was under 50 nM.

As usually defined, the IC50 is the concentration that gives 50% inhibition.
